# Tests used:
# [1] = test system: α-glucosidase (yeast-derived reagent); test: α-Glucosidase inhibitory activity (maltose substrate); assay type: biochemical; conditions: for IC50: yeast-derived α-glucosidase, maltose substrate, 37° C., 60 minutes, read-out: 50% α-glucosidase inhibition concentration
# Procedure: A yeast-derived reagent (Wako Pure Chemical) was used as an α-glucosidase. The reagent was dissolved in 10 mM phosphate buffer (pH 7.0) containing 0.2% bovine serum albumin.
# In the experiment, 0.25 mL of 100 mM phosphate buffer, 0.25 mL of each sample solution at a different concentration, and 0.125 mL of a maltose aqueous solution serving as a substrate at a concentration of 10 mg/mL were mixed, followed by heating at 37° C. for 5 minutes. Then, 0.125 mL of an α-glucosidase solution was added thereto, followed by enzyme treatment at 37° C. for 60 minutes. As a reaction termination solution, 0.5 mL of a 0.2 M sodium carbonate solution was added to each resultant, followed by mixing. The glucose concentration of each reaction solution was measured using Glucose CII-Test Wako (Wako Pure Chemical). An inhibition rate (%) was calculated based on a proportion of the glucose concentration of a solution to which a sample had been added to the glucose concentration of a blank solution to which no sample had been added. Then, the concentration of each sample at which 50% enzyme activity was inhibited was calculated based on such inhibition rate derived from the concentration of the sample, followed by comparison.
# [2] = Antioxidative activity measurement by DPPH radical scavenging; assay type: biochemical; conditions: for DPPH radical 50% scavenging concentration: 30° C., 30 minutes, absorbance at 517 nm; for radical scavenging activity compared with α-tocopherol: DPPH reagent, result in words
# Procedure: Antioxidative activity was evaluated with the use of a stable-radical diphenyl-p-picrylhydradil (DPPH)/ethanol solution. 400 μl of a sample/methanol solution was mixed with 1600 μl of 250 mM acetate buffer (pH=5.5) and 1200 μl of ethanol, at a different concentration, followed by preincubation at 30° C. for 5 minutes. Then, 800 μl of a 500 μM DPPH/ethanol solution was added to each resulting solution, followed by mixing. Each resultant was allowed to stand at 30° C. for 30 minutes, followed by measurement of absorbance at 517 nm. α-tocopherol was also subjected to the same operation. The obtained solution was thus designated as a positive control. A blank solution used was prepared by the same operation with the use of methanol instead of a sample solution. Based on absorbances measured, radical scavenging rates were calculated based on the following equation. Scavenging rate(%)=(1−[Absorbance of a sample]/[Absorbance of a blank])×100 [Equation 1]
# The concentration of a sample solution was changed stepwise for the measurement of the aforementioned scavenging rate. As a result, the concentration of a sample solution at which the DPPH radical scavenging rate was 50% was obtained so as to be designated as the DPPH radical 50% scavenging concentration. The lower such value, the higher the radical scavenging capacity.
# [3] = result in words; cited from earlier work
smiles,measurement,setting,value
OCC1OC2O[C@@H]3[C@@H](c4ccc(O)c(O)c4)Oc4cc(O)cc(O)c4[C@@H]3OC2C(O)C1O (stereo in doubt) [Product of the present invention],glucosidase inhibitory activity compared with isoquercitrin,[1]; result in words,several times stronger than that of isoquercitrin
same,glucosidase inhibitory activity compared with taxifolin,[1]; result in words,several times stronger
same,glucosidase inhibitory activity compared with taxifolin,"[1]; result in words, listed as polyphenol glycoside of the present invention",several times stronger than that of taxifolin
same,IC50,[1],164 µM
same,DPPH radical 50% scavenging concentration,[2],0.080 mg/mL
same,radical scavenging activity compared with α-tocopherol,[2],comparable to or exceeding that of α-tocopherol
same,radical scavenging activity compared with α-tocopherol,[2]; listed as novel polyphenol glycoside of the present invention,almost comparable to that of α-tocopherol
"O=c1c(OC2OC(CO)C(O)C(O)C2O)c(-c2ccc(O)c(O)c2)oc2cc(O)cc(O)c12 (centres unmarked) [Isoquercitrin, quercetin-3-glucoside, reference compound]",IC50,[1],727 µM
"O=C1c2c(O)cc(O)cc2O[C@H](c2ccc(O)c(O)c2)[C@H]1O [Taxifolin, taxifolin, reference compound]",IC50,[1],892 µM
"Cc1c(C)c2c(c(C)c1O)CC[C@@](C)(CCC[C@H](C)CCC[C@H](C)CCCC(C)C)O2 [α-tocopherol, reference compound]",solubility in water,[3],insoluble in water
same,DPPH radical 50% scavenging concentration,[2],0.127 mg/mL
